In the Deep4Chem optical property database:

Experiment: solvent given as SMILES

Clc1nc(Cl)nc(Nc2cc3ccc4cccc5ccc(c2)c3c45)n1
fluorescence lifetime (in CCCCCCC): 122 ns

CCN(CC)c1ccc2cc3ccc(=[N+](CC)CC)cc-3oc2c1
fluorescence lifetime (in CC#N): 4.18 ns | fluorescence lifetime (in CCO): 3.89 ns | fluorescence lifetime (in CN(C)C=O): 3.87 ns | fluorescence lifetime (in O): 4.07 ns

F[B-]1(F)OC(c2cc3c4c(c2)CCCN4CCC3)=Cc2cccc[n+]21
fluorescence lifetime (in ClC(Cl)Cl): 3.19 ns

Cc1ccc(C2=C3C=CC(/C=C/c4ccccc4)=[N+]3[B-](F)(F)n3c(/C=C/c4ccccc4)ccc32)cc1
fluorescence lifetime (in C1CCCCC1): 4.37 ns | fluorescence lifetime (in C1CCOC1): 4.09 ns | fluorescence lifetime (in C1COCCO1): 4.31 ns | fluorescence lifetime (in CCOC(C)=O): 4.77 ns | fluorescence lifetime (in CO): 4.54 ns | fluorescence lifetime (in Cc1ccccc1): 4.48 ns | fluorescence lifetime (in ClC(Cl)Cl): 4.63 ns

c1ccc(-c2nc(-c3ccc(-c4nc(-c5ccccc5)c(-c5ccccc5)o4)cc3)oc2-c2ccccc2)cc1
fluorescence lifetime (in C1COCCO1): 1.03 ns

N#C/C(=C\c1ccncc1)c1nc(-c2ccc(Cl)cc2)cs1
fluorescence lifetime (in CC#N): 4.24 ns

COc1ccc(C2=C3C=c4c(oc5ccccc45)=[N+]3[B-](F)(F)n3c2cc2c4ccccc4oc23)cc1
fluorescence lifetime (in C1CCCCC1): 4.1 ns | fluorescence lifetime (in CCOC(C)=O): 4.22 ns | fluorescence lifetime (in CO): 4.14 ns

CCN(CC)c1ccc2nc3c4ccccc4c(=O)cc-3oc2c1
fluorescence lifetime (in C1CCCCC1): 2.76 ns | fluorescence lifetime (in C1COCCO1): 4.5 ns | fluorescence lifetime (in CC1COC(=O)O1): 4.4 ns | fluorescence lifetime (in CC#N): 4.7 ns | fluorescence lifetime (in CC(C)=O): 4.66 ns | fluorescence lifetime (in CC(C)O): 4.1 ns | fluorescence lifetime (in CCCC#N): 4.54 ns | fluorescence lifetime (in CCCCCCCCCCO): 4.19 ns | fluorescence lifetime (in CCCCCO): 3.95 ns | fluorescence lifetime (in CCCCO): 3.91 ns | fluorescence lifetime (in CCCCOCCCC): 4.15 ns | fluorescence lifetime (in CCCO): 3.8 ns | fluorescence lifetime (in CCO): 3.65 ns | fluorescence lifetime (in CCOC(C)=O): 4.53 ns | fluorescence lifetime (in CCOCC): 4.45 ns | fluorescence lifetime (in CN(C)C=O): 4.35 ns | fluorescence lifetime (in CO): 2.8 ns | fluorescence lifetime (in ClC(Cl)(Cl)Cl): 4.1 ns | fluorescence lifetime (in ClCCl): 4.48 ns | fluorescence lifetime (in OC(C(F)(F)F)C(F)(F)F): 0.94 ns | fluorescence lifetime (in OCC(F)(F)F): 1.76 ns | fluorescence lifetime (in OCC(O)CO): 1.95 ns | fluorescence lifetime (in OCCO): 2.5 ns | fluorescence lifetime (in [2H]OC): 4.2 ns | fluorescence lifetime (in [2H]OCC): 4.56 ns

Cc1cc(C(F)(F)F)nc2c1ccc1nc(-c3ccc(F)c(F)c3)cn12
fluorescence lifetime (in CC#N): 8.58 ns | fluorescence lifetime (in CCCCOC(C)=O): 7.28 ns | fluorescence lifetime (in CCOC(C)=O): 7.26 ns | fluorescence lifetime (in CO): 8.3 ns | fluorescence lifetime (in c1ccccc1): 6.69 ns

c1ccc(-c2nc(-c3ccccc3)nc(-c3ccc(-n4c5ccc(-n6c7ccccc7c7ccccc76)cc5c5cc(-n6c7ccccc7c7ccccc76)ccc54)cc3)n2)cc1
fluorescence lifetime (in Cc1ccccc1): 6 ns

O=S(=O)(c1ccc(-c2ccc3c(c2)c2ccccc2n3-c2ccccc2)cc1)c1ccc(-c2ccc3c(c2)c2ccccc2n3-c2ccccc2)cc1
fluorescence lifetime (in Cc1ccccc1): 1.51 ns

CCCCCCN1C(=O)C(c2ccc(-c3ccc(-n4c5ccccc5c5ccccc54)cc3)cc2)=C(c2ccc(-c3ccc(-n4c5ccccc5c5ccccc54)cc3)cc2)C1=O
fluorescence lifetime (in ClC(Cl)Cl): 6.4 ns | fluorescence lifetime (in c1ccc2c(c1)c1ccccc1n2-c1ccc(-c2ccc(-n3c4ccccc4c4ccccc43)cc2)cc1): 5.5 ns

C=Cc1cc2ccc(OC(=O)c3ccccc3)cc2oc1=O
fluorescence lifetime (in CC#N): 3.28 ns

COC(=O)/C(C#N)=c1\s/c(=c2/s/c(=C(/C#N)C(=O)OC)c3cc(-c4ccc(OC)cc4)sc23)c2sc(-c3ccc(OC)cc3)cc12
fluorescence lifetime (in Cc1ccccc1): 4.36 ns

CC1(C)C(/C=C/C2=C(c3ccc(C(=O)O)cc3)C(=C/C=C3/N(CCCCS(=O)(=O)[O-])c4ccc5ccccc5c4C3(C)C)/CCC2)=[N+](CCCCS(=O)(=O)[O-])c2ccc3ccccc3c21
fluorescence lifetime (in CC(C)=O): 0.84 ns | fluorescence lifetime (in CCO): 0.69 ns | fluorescence lifetime (in CO): 0.61 ns | fluorescence lifetime (in CS(C)=O): 0.98 ns | fluorescence lifetime (in ClC(Cl)Cl): 1.62 ns | fluorescence lifetime (in ClCCl): 1.34 ns | fluorescence lifetime (in O): 0.2 ns

CC1=[N+]2C(=C(c3ccc(N(c4ccccc4)c4ccccc4)cc3)c3ccc(C)n3[B-]2(F)F)C=C1c1cc2n(c1)[B-](F)(F)[N+]1=CC=CC1=C2c1c(C)cc(C)cc1C
fluorescence lifetime (in C1CCCCC1): 2.6 ns | fluorescence lifetime (in CCOC(C)=O): 0.72 ns

N#C/C(=C\c1ccc(C#N)cc1)c1nc(-c2ccccc2)cs1
fluorescence lifetime (in CC#N): 3.4 ns

CCCCn1c(=O)c2cc3ccc4cccc5ccc(c2c1=O)c3c45
fluorescence lifetime (in ClC(Cl)Cl): 5.48 ns

CC(C)(C)c1ccc(C2=c3sc(-c4ccc(C(C)(C)C)cc4)c(-c4ccc(C(C)(C)C)cc4)c3=[N+]3C2=Nc2c(-c4ccc(C(C)(C)C)cc4)c4sc(-c5ccc(C(C)(C)C)cc5)c(-c5ccc(C(C)(C)C)cc5)c4n2[B-]3(F)F)cc1
fluorescence lifetime (in ClC(Cl)Cl): 1.18 ns

CN(C)c1ccc(/C=C/c2nc3c4ccccc4c4ccccc4c3[nH]2)cc1
fluorescence lifetime (in C1CCOC1): 0.341 ns | fluorescence lifetime (in C1COCCO1): 0.484 ns | fluorescence lifetime (in CC1CCCCC1): 0.471 ns | fluorescence lifetime (in CC#N): 0.356 ns | fluorescence lifetime (in CCOC(C)=O): 0.325 ns | fluorescence lifetime (in CCOCC): 0.391 ns | fluorescence lifetime (in CN(C)C=O): 0.37 ns | fluorescence lifetime (in COC(C)=O): 0.308 ns | fluorescence lifetime (in CS(C)=O): 0.384 ns | fluorescence lifetime (in Cc1ccccc1): 0.306 ns | fluorescence lifetime (in ClC(Cl)Cl): 0.138 ns

COc1ccc(/C=C/C2=[O+][B-](F)(F)OC(/C=C/c3ccc(OC)c4ccccc34)=C2c2ccccc2)c2ccccc12
fluorescence lifetime (in CC#N): 0.63 ns | fluorescence lifetime (in CC(C)=O): 1.02 ns | fluorescence lifetime (in CCOC(C)=O): 1.28 ns | fluorescence lifetime (in CCOCC): 1.12 ns | fluorescence lifetime (in ClC(Cl)(Cl)Cl): 0.94 ns | fluorescence lifetime (in ClCCl): 1.91 ns

Cc1cccc2nc3c(=O)[nH]c(=O)[nH]c3nc12
fluorescence lifetime (in C1COCCO1): 0.5 ns | fluorescence lifetime (in CC#N): 0.7 ns | fluorescence lifetime (in CCO): 1.35 ns | fluorescence lifetime (in CO): 1.6 ns | fluorescence lifetime (in ClCCCl): 0.74 ns | fluorescence lifetime (in O): 7.3 ns

CCCCCCCCCCn1nnc(-c2ccc(C#Cc3ccc(C#Cc4ccc(-c5nnn(CCCCCCCCCC)n5)cc4)c4nc5c6ccccc6c6ccccc6c5nc34)cc2)n1
fluorescence lifetime (in C1CCOC1): 3.66 ns | fluorescence lifetime (in Cc1ccccc1): 2.52 ns | fluorescence lifetime (in ClCCl): 4.8 ns

COc1ccc(-c2cnc3nn4ccccc4c3c2)cc1
fluorescence lifetime (in C1CCOC1): 4.8 ns

CCCCC1=Cc2c3ccc4cccc5ccc(c6cc(-c7ccccc7)n(c26)P1(=O)c1ccccc1)c3c45 (centres undefined)
fluorescence lifetime (in C1CCCCC1): 1.9 ns | fluorescence lifetime (in C1CCOC1): 1.7 ns | fluorescence lifetime (in C1COCCO1): 1.8 ns | fluorescence lifetime (in CC#N): 1.8 ns | fluorescence lifetime (in CC(C)=O): 1.8 ns | fluorescence lifetime (in CO): 1.7 ns | fluorescence lifetime (in Cc1ccccc1): 1.7 ns | fluorescence lifetime (in ClC(Cl)Cl): 1.6 ns | fluorescence lifetime (in ClCCl): 1.6 ns

COc1ccc2c(c1)-c1cc(OC)ccc1C2=O
fluorescence lifetime (in C1CCCCC1): 1.8 ns | fluorescence lifetime (in CC#N): 15.7 ns | fluorescence lifetime (in CCO): 0.8 ns

Cc1cc(=O)c2ccc(N)cc2o1
fluorescence lifetime (in C1CCOC1): 3.22 ns | fluorescence lifetime (in C1COCCO1): 0.48 ns | fluorescence lifetime (in CC#N): 0.59 ns | fluorescence lifetime (in CC(C)O): 4.56 ns | fluorescence lifetime (in CCCCO): 4.01 ns | fluorescence lifetime (in CCCO): 4.68 ns | fluorescence lifetime (in CCOC(C)=O): 0.94 ns | fluorescence lifetime (in CN(C)C=O): 3.37 ns | fluorescence lifetime (in CO): 4.45 ns | fluorescence lifetime (in CS(C)=O): 0.8 ns | fluorescence lifetime (in ClC(Cl)Cl): 3.67 ns | fluorescence lifetime (in O): 5.52 ns

Cc1oc2c(Cl)cc3c(C)cc(=O)oc3c2c1C
fluorescence lifetime (in C1COCCO1): 0.08 ns | fluorescence lifetime (in CC#N): 0.15 ns | fluorescence lifetime (in CCO): 0.79 ns | fluorescence lifetime (in OCC(F)(F)F): 2.4 ns

CCCCCCCCn1c(=O)c2cc3c(C#Cc4ccc(N(c5ccccc5)c5ccccc5)cc4)c4cc5c(=O)n(CCCCCCCC)c(=O)c5cc4c(C#Cc4ccc(N(c5ccccc5)c5ccccc5)cc4)c3cc2c1=O
fluorescence lifetime (in ClC(Cl)Cl): 3.4 ns

CN1CCN(CCCN2c3ccccc3Sc3ccc(Cl)cc32)CC1
fluorescence lifetime (in CC#N): 0.91 ns | fluorescence lifetime (in CO): 0.89 ns

CC(C)c1cc(C(C)C)c(B2c3cc(-n4c5ccccc5c5ccccc54)ccc3N(c3ccccc3)c3ccc(-n4c5ccccc5c5ccccc54)cc32)c(C(C)C)c1
fluorescence lifetime (in c1cc(-c2cccc(-n3c4ccccc4c4ccccc43)c2)cc(-n2c3ccccc3c3ccccc32)c1): 15 ns

O=C1/C(=C2\Sc3ccc(S(=O)(=O)O)cc3C2=O)Sc2ccc(S(=O)(=O)O)cc21
fluorescence lifetime (in CN(C)C=O): 4.85 ns | fluorescence lifetime (in CO): 0.99 ns | fluorescence lifetime (in CS(C)=O): 0.16 ns | fluorescence lifetime (in O): 0.13 ns
